Measurements: ChEMBL document CHEMBL1134226, “The amide hydrogen of (-)-indolactam-V and benzolactam-V8's plays a critical role in protein kinase C binding and tumor-promoting activities” (Bioorg Med Chem Lett, 2001)

Tests used:
[1] = target: T1, Protein kinase C eta type (Homo sapiens, UniProt P24723); test: Inhibition of [3H]phorbol-12,13-dibutyrate (PDBu) binding to Protein kinase C eta C1b domain
[2] = target: T2, Protein kinase C delta type (Homo sapiens, UniProt Q05655); test: Inhibition of [3H]phorbol-12,13-dibutyrate (PDBu) binding to Protein kinase C delta C1b domain
[3] = target: T3, Protein kinase C epsilon type (Homo sapiens, UniProt Q02156); test: Inhibition of [3H]phorbol-12,13-dibutyrate (PDBu) binding to Protein kinase C epsilon C1b domain
T3 sequence (Q02156 whole entry): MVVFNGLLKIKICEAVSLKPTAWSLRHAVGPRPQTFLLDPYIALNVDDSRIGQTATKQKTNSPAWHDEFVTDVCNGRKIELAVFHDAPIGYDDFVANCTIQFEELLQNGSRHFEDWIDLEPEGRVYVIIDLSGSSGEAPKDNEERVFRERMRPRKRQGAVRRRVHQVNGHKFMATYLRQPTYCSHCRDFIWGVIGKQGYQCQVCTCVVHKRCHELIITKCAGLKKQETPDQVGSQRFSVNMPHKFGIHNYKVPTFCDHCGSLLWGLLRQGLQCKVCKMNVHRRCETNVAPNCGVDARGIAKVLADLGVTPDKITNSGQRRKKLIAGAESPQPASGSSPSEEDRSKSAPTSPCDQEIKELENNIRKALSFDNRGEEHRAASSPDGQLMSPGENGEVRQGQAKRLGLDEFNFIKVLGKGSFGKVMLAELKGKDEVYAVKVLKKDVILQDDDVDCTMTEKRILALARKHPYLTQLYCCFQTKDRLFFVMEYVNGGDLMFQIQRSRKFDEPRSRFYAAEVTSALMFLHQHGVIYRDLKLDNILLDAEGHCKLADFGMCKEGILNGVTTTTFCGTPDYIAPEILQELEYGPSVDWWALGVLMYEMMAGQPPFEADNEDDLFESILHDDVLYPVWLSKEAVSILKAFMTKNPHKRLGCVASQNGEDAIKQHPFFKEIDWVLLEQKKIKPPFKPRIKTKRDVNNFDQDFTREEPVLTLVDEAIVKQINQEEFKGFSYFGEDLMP

[4] = tested on: Raji (Homo sapiens); test: Tested for epstein barr virus early antigen (EBV-EA) inducing activity in Raji cells at 10e-6 M
[5] = target: T4, Protein kinase C beta type (Homo sapiens, UniProt P05771); test: Inhibition of [3H]phorbol-12,13-dibutyrate (PDBu) binding to Protein kinase C beta C1b domain
Target sequence in this assay (P05771 whole entry, looked up, the tested form may be a part): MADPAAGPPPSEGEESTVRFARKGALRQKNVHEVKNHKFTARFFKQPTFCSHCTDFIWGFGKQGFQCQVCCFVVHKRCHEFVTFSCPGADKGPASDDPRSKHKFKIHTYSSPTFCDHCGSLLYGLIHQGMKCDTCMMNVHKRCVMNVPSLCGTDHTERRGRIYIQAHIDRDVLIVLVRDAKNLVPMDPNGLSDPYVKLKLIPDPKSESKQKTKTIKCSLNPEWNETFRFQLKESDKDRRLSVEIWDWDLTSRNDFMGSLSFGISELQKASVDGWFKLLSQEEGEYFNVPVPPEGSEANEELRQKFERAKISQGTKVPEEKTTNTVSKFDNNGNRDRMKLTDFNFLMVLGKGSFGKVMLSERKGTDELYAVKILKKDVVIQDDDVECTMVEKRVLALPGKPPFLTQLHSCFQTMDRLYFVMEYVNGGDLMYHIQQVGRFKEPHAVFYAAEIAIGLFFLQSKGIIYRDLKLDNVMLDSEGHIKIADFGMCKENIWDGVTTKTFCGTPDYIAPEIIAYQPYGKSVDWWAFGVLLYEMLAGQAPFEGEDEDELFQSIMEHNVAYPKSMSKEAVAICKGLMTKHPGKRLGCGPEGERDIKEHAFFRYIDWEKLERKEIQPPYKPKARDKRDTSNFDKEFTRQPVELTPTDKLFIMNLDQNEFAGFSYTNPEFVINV

[6] = target: Protein kinase C theta type (Homo sapiens, UniProt Q04759); test: Inhibition of [3H]phorbol-12,13-dibutyrate (PDBu) binding to Protein kinase C theta C1b domain
[7] = tested on: HL-60; test: Tested for superoxide (O2-) generation inducing activity in differentiated HL-60 cells at 10e-6 M; format: functional, Homo sapiens
[8] = tested on: Raji (Homo sapiens); test: Tested for epstein barr virus early antigen (EBV-EA) inducing activity in Raji cells at 10e-5 M
[9] = target: T4, Protein kinase C beta type; test: Inhibition of [3H]phorbol-12,13-dibutyrate (PDBu) binding to Protein kinase C beta C1a
Target sequence in this assay (P05771 whole entry, the tested form may be a part): as the sequence (P05771 whole entry, looked up, the tested form may be a part) above

[10] = tested on: HL-60; test: Tested for superoxide (O2-) generation inducing activity in differentiated HL-60 cells at 10e-7 M; format: functional, Homo sapiens
[11] = target: T2, Protein kinase C delta type; test: Inhibition of [3H]phorbol-12,13-dibutyrate (PDBu) binding to Protein kinase C delta C1a domain
[12] = tested on: Raji (Homo sapiens); test: Tested for epstein barr virus early antigen (EBV-EA) inducing activity in Raji cells at 10e-4.5 M
[13] = target: T5, Protein kinase C gamma type (Homo sapiens, UniProt P05129); test: Inhibition of [3H]phorbol-12,13-dibutyrate (PDBu) binding to Protein kinase C gamma C1a domain
[14] = target: T6, Protein kinase C alpha type (Homo sapiens, UniProt P17252); test: Inhibition of [3H]phorbol-12,13-dibutyrate (PDBu) binding to Protein kinase C alpha C1b domain
[15] = tested on: HL-60; test: Tested for superoxide (O2-) generation inducing activity in differentiated HL-60 cells at 10e-5 M; format: functional, Homo sapiens
[16] = target: T6, Protein kinase C alpha type; test: Inhibition of [3H]phorbol-12,13-dibutyrate (PDBu) binding to Protein kinase C alpha C1a domain
[17] = target: T1, Protein kinase C eta type; test: Inhibition of [3H]phorbol-12,13-dibutyrate (PDBu) binding to Protein kinase C eta C1a domain
[18] = target: T3, Protein kinase C epsilon type; test: Inhibition of [3H]phorbol-12,13-dibutyrate (PDBu) binding to Protein kinase C epsilon C1a domain
[19] = target: T5, Protein kinase C gamma type; test: Inhibition of [3H]phorbol-12,13-dibutyrate (PDBu) binding to Protein kinase C gamma C1b domain
[20] = tested on: HL-60; test: Tested for superoxide (O2-) generation inducing activity in differentiated HL-60 cells at 10e-4 M; format: functional, Homo sapiens
[21] = tested on: HL-60; test: Tested for epstein barr virus early antigen (EBV-EA) inducing activity in […] at 10e-7 M; format: functional, Homo sapiens

T1 sequence (P24723 whole entry, the tested form may be a part): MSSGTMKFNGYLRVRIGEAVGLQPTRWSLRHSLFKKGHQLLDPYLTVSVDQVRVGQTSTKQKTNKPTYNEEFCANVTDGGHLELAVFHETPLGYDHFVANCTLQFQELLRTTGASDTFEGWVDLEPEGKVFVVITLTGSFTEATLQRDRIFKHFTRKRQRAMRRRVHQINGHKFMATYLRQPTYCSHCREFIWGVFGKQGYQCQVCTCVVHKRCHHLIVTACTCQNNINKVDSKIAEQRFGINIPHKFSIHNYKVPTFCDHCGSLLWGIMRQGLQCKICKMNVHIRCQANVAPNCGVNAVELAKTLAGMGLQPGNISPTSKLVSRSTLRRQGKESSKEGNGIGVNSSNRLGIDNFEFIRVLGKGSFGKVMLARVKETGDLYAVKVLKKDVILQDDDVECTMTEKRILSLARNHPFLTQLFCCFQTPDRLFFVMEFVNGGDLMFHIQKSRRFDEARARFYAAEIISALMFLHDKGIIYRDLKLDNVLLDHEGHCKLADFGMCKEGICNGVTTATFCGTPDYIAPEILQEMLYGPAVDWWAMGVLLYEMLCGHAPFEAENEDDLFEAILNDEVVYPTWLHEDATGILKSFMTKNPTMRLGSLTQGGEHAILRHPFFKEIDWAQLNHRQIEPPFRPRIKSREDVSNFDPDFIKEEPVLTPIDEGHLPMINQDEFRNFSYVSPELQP
T2 sequence (Q05655 whole entry, the tested form may be a part): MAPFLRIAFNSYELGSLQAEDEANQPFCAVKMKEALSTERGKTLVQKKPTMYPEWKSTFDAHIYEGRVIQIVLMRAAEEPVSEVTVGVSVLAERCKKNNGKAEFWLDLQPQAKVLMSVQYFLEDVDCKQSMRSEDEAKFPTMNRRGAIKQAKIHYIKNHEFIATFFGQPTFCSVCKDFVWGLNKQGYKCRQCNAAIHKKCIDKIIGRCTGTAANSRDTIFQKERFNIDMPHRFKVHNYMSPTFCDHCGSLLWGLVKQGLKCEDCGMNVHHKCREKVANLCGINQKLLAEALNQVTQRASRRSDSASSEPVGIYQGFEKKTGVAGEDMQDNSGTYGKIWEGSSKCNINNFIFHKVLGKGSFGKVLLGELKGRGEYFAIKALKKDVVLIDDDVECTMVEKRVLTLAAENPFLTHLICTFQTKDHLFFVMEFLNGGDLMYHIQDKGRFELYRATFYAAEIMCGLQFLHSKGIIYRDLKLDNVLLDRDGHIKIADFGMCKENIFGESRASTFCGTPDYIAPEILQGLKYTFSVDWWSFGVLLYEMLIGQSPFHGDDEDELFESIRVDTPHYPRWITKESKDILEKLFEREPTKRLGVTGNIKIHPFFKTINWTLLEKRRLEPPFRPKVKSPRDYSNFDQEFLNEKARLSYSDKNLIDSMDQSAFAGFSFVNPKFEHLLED
Sequence of Protein kinase C theta type (Q04759 whole entry, the tested form may be a part): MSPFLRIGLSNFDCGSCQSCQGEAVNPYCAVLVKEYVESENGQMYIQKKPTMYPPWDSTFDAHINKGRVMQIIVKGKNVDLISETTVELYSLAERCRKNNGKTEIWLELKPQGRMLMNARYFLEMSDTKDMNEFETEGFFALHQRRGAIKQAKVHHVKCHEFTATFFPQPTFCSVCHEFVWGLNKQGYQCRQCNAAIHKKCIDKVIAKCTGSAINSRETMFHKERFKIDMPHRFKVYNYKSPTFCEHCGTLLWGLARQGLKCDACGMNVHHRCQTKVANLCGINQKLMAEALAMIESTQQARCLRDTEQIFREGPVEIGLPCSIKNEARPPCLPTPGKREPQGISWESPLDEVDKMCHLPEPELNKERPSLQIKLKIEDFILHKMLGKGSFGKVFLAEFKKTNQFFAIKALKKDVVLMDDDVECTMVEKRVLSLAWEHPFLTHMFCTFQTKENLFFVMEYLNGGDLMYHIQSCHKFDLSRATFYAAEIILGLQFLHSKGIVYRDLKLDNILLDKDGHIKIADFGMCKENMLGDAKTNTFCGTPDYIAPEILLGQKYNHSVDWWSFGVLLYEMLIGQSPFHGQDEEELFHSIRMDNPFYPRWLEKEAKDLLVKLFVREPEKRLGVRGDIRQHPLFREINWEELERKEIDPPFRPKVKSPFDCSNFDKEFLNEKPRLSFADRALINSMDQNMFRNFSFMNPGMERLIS

| Ki [1] [nM] | Ki [2] [nM] | Ki [3] [nM] | Ki [5] [nM] | Ki [6] [nM] | Ki [9] [nM] | Ki [11] [nM] | Ki [13] [nM] | Ki [14] [nM] | Ki [16] [nM] | Ki [17] [nM] | Ki [18] [nM] | Ki [19] [nM] | SMILES | Activity [4] [%] | Activity [7] [nM min-1 ml-1] | Activity [8] [%] | Activity [10] [nM min-1 ml-1] | Activity [12] [%] | Activity [15] [nM min-1 ml-1] | further results |
| --- | --- | --- | --- | --- | --- | --- | --- | --- | --- | --- | --- | --- | --- | --- | --- | --- | --- | --- | --- | --- |
| 6.4 | 14.6 | 13.1 | 261 | 13.2 | 442 | 2770 | 1660 | 4690 | 323 | 2490 | 8360 | 151 | CCCCCCCCCCc1ccc2c(c1)C[C@@H](CO)NC(=O)[C@H](C(C)C)N2C | 6.7 | 0.31 | 11.3 | 0.33 | 17.6 | 3.04 |  |
| 120 | 1160 | 262 | 22000 | 1100 | > 10000 | 70600 | 6320 | > 10000 | > 10000 | > 10000 | > 10000 | 17600 | CCCCCCCCCCc1ccc2c(c1)C[C@@H](CO)OC(=O)[C@H](C(C)C)N2C | 0.8 | 0.11 | 1.9 |  | 5 | 0.2 | Activity [20]: 0.19 nM min-1 ml-1 |
|  |  |  |  |  |  |  |  |  |  |  |  |  | CC(C)[C@H]1C(=O)N[C@H](CO)Cc2c[nH]c3cccc(c23)N1C [INDOLACTUM] | 33.5 | 3.19 | 28.9 | 0.05 |  | 3.18 | Activity [21]: 16.8% |
|  |  |  |  |  |  |  |  |  |  |  |  |  | CCCCCCCCCCCCCC(=O)O[C@@H]1[C@@H](C)[C@@]2(O)[C@@H](C=C(CO)C[C@]3(O)C(=O)C(C)=C[C@@H]23)[C@@H]2C(C)(C)[C@]12OC(C)=O [PHORBOL MYRISTATE ACETATE] |  |  |  | 1.32 |  |  |  |
